# Assay results as given in patent US5698522A, “6-position modified decapeptide LHRH antagonists” (Abbott Laboratories, priority 1995, dated 1997).
# *1 amine or outer side, *2 acyl side, *3 side chain or, on linkers, in order; H or OH if unused. Where a SMILES comes first, the peptide text is derived from it. Side-chain parts run from the residue outwards. [ ]: non-standard residue; d: D form. The star is where a group is joined. Shikimoyl = O=C(C1=C[C@@H](O)[C@@H](O)[C@H](O)C1)*; dPhe(4-Cl) = N[C@H](Cc1ccc(Cl)cc1)C(=O)O; d2Nal = N[C@H](Cc1ccc2ccccc2c1)C(=O)O; Lys(iPr) = CC(C)NCCCC[C@H](N)C(=O)O; NMeY = CN[C@@H](Cc1ccc(O)cc1)C(=O)O; Ethylenediamine = C(CN[*:2])N[*:1]; d3Pal = N[C@H](Cc1cccnc1)C(=O)O; Salicyloyl = O=C(c1ccccc1O)*; Nicotinoyl = O=C(c1cccnc1)*; 2Furoyl = O=C(c1ccco1)*; CO = O=C([*:1])[*:2]; Ahx = NCCCCCC(=O)O; GABA = NCCCC(=O)O; azaGly = NNC(=O)O; βAla = NCCC(=O)O
# Target: T1, LHRH receptor (Rattus norvegicus, UniProt P30969)
# T1 construct: endogenous in cells
# T1 sequence (P30969 1-327): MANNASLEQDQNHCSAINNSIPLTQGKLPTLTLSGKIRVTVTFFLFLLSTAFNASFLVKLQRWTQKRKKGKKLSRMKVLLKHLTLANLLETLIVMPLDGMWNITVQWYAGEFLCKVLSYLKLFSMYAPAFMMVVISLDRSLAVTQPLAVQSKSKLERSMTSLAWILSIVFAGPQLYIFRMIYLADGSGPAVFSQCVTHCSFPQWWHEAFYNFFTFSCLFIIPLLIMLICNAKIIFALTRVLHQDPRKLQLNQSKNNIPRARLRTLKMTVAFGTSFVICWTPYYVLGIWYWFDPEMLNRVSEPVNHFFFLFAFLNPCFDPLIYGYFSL
# Experiment: in vitro LHRH antagonist potency (pA2) against the agonist leuprolide
# Type: cell-based
# Settings: negative logarithm of the antagonist concentration which shifts the response curve produced by the agonist leuprolide to two-fold higher concentration
# Description: Representative compounds of the present invention were evaluated in in vitro tests for receptor binding (pKI) and for LHRH antagonist potency (pA2). The tests employed the methods detailed in F. Haviv, et al., J. Med. Chem., 32: 2340-2344 (1989). The receptor binding affinities (pKI) are the negative logarithms of the equilibtirum dissociation constants (pA2) are the negative logarithms of the concentration of antagonist which shift the response curve roduced by the agonist leuprolide to two-fold higher concentration. (Leuprolide is the LHRH agonist having the structure 5-oxo-Pro^1 -His^2 -Trp^3 -Ser^4 -Tyr^5 -D-Leu^6 -Leu^7 -Arg^8 -Pro^9 -NHEt and is disclosed and claimed in U.S. Pat. No. 4,005,063.) Typically pA2 values of 9.5 or greater are indicative of good LHRH antagonist potency.
row,Compound,Kb
1,"CC(=O)N[C@H](Cc1ccc2ccccc2c1)C(=O)N[C@H](Cc1ccc(Cl)cc1)C(=O)N[C@H](Cc1cccnc1)C(=O)N[C@@H](CO)C(=O)N(C)[C@@H](Cc1ccc(O)cc1)C(=O)N[C@H](CCCCNC(=O)CCCCCNC(=O)CCNC(=O)c1cccnc1)C(=O)N[C@@H](CC(C)C)C(=O)N[C@@H](CCCCNC(C)C)C(=O)N1CCC[C@H]1C(=O)N[C@H](C)C(N)=O [Example 19a, NAc-D2Nal-D4ClPhe^2 -D3Pal^3 -Ser^4 -NMeTyr^5 -DLys[N-epsilon-(N'-epsilon-Aminocaproyl)(N""-beta-Alanyl)-Nicotinyl]^6-Leu^7 -Lys(N-epsilon-Isopropyl)^8 -Pro^9 -DAla^10 NH2] (Ac-[d2Nal][dPhe(4-Cl)][d3Pal]S[NMeY][dK]([Ahx-βAla-Nicotinoyl])L[Lys(iPr)]P[dA]-NH2)",0.024 nM
2,"CC(=O)N[C@H](Cc1ccc2ccccc2c1)C(=O)N[C@H](Cc1ccc(Cl)cc1)C(=O)N[C@H](Cc1cccnc1)C(=O)N[C@@H](CO)C(=O)N(C)[C@@H](Cc1ccc(O)cc1)C(=O)N[C@H](CCCCNC(=O)CNC(=O)c1ccccc1O)C(=O)N[C@@H](CC(C)C)C(=O)N[C@@H](CCCCNC(C)C)C(=O)N1CCC[C@H]1C(=O)N[C@H](C)C(N)=O [Example 19b, NAc-D2Nal^1 -D4ClPhe^2 -D3Pal^3 -Ser^4 -NMeTyr^5 -DLys[N-epsilon-Gly-Salicyl]^6 -Leu^7 -Lys(N-epsilon-Isopropyl)^8 -Pro^9 -DAla^10 NH2] (Ac-[d2Nal][dPhe(4-Cl)][d3Pal]S[NMeY][dK]([Gly-Salicyloyl])L[Lys(iPr)]P[dA]-NH2)",0.00661 nM
3,"CC(=O)N[C@H](Cc1ccc2ccccc2c1)C(=O)N[C@H](Cc1ccc(Cl)cc1)C(=O)N[C@H](Cc1cccnc1)C(=O)N[C@@H](CO)C(=O)N(C)[C@@H](Cc1ccc(O)cc1)C(=O)N[C@H](CCCCNC(=O)CNC(=O)CNC(=O)c1cccnc1)C(=O)N[C@@H](CC(C)C)C(=O)N[C@@H](CCCCNC(C)C)C(=O)N1CCC[C@H]1C(=O)N[C@H](C)C(N)=O [Example 19c, NAc-D2Nal^1 -D4ClPhe^2 -D3Pal^3 -Ser^4 -NMeTyr^5 -DLys[N-epsilon-Gly-Gly-Nicotinyl]^6 -Leu^7 -Lys(N-epsilon-Isopropyl)^8 -Pro^9 -DAla^10 NH2] (Ac-[d2Nal][dPhe(4-Cl)][d3Pal]S[NMeY][dK]([Gly-Gly-Nicotinoyl])L[Lys(iPr)]P[dA]-NH2)",0.00331 nM
4,"CC(=O)N[C@H](Cc1ccc2ccccc2c1)C(=O)N[C@H](Cc1ccc(Cl)cc1)C(=O)N[C@H](Cc1cccnc1)C(=O)N[C@@H](CO)C(=O)N(C)[C@@H](Cc1ccc(O)cc1)C(=O)N[C@H](CCCCNC(=O)CCNC(=O)NNC(=O)c1cccnc1)C(=O)N[C@@H](CC(C)C)C(=O)N[C@@H](CCCCNC(C)C)C(=O)N1CCC[C@H]1C(=O)N[C@H](C)C(N)=O [Example 25a, NAc-D2Nal^1 -D4ClPhe^2 -D3Pal^3 -Ser^4 -NMeTyr^5 -DLys[N-epsilon-(beta-Alanyl)-Azagly-Nicotinyl]^6 -Leu^7 -Lys(N-epsilon-Isopropyl)^8 -Pro^9 -DAla^10 NH2] (Ac-[d2Nal][dPhe(4-Cl)][d3Pal]S[NMeY][dK]([βAla-azaGly-Nicotinoyl])L[Lys(iPr)]P[dA]-NH2)",0.0363 nM
5,"CC(=O)N[C@H](Cc1ccc2ccccc2c1)C(=O)N[C@H](Cc1ccc(Cl)cc1)C(=O)N[C@H](Cc1cccnc1)C(=O)N[C@@H](CO)C(=O)N(C)[C@@H](Cc1ccc(O)cc1)C(=O)N[C@H](CCCCNC(=O)CCCNC(=O)NNC(=O)c1cccnc1)C(=O)N[C@@H](CC(C)C)C(=O)N[C@@H](CCCCNC(C)C)C(=O)N1CCC[C@H]1C(=O)N[C@H](C)C(N)=O [Example 25b, NAc-D2Nal^1 -D4ClPhe^2 -D3Pal^3 -Ser^4 -NMeTyr^5 -DLys[N-epsilon-(gamma-Aminobutyryl)-Azagly-Nicotinyl]^6 -Leu^7 -Lys(N-epsilon-Isopropyl)^8 -Pro^9 -DAla^10 NH2] (Ac-[d2Nal][dPhe(4-Cl)][d3Pal]S[NMeY][dK]([GABA-azaGly-Nicotinoyl])L[Lys(iPr)]P[dA]-NH2)",0.0407 nM
6,"CC(=O)N[C@H](Cc1ccc2ccccc2c1)C(=O)N[C@H](Cc1ccc(Cl)cc1)C(=O)N[C@H](Cc1cccnc1)C(=O)N[C@@H](CO)C(=O)N(C)[C@@H](Cc1ccc(O)cc1)C(=O)N[C@H](CCCCNC(=O)NCCNC(=O)c1ccco1)C(=O)N[C@@H](CC(C)C)C(=O)N[C@@H](CCCNC(=N)N)C(=O)N1CCC[C@H]1C(=O)N[C@H](C)C(N)=O [Example 36, NAc-D2Nal^1 -D4ClPhe^2 -D3Pal^3 -Ser^4 -NMeTyr^5 -DLys[N-epsilon-(N'-Carbonyl-Diaminoethane-N""-Furoyl)]^6 -Leu^7 -Arg^8 -Pro^9 -DAla^10 NH2] (Ac-[d2Nal][dPhe(4-Cl)][d3Pal]S[NMeY][dK]([CO-Ethylenediamine-2Furoyl])LRP[dA]-NH2)",0.0107 nM
7,"CC(=O)N[C@H](Cc1ccc2ccccc2c1)C(=O)N[C@H](Cc1ccc(Cl)cc1)C(=O)N[C@H](Cc1cccnc1)C(=O)N[C@@H](CO)C(=O)N(C)[C@@H](Cc1ccc(O)cc1)C(=O)N[C@H](CCCCNC(=O)NNC(=O)c1ccco1)C(=O)N[C@@H](CC(C)C)C(=O)N[C@@H](CCCNC(=N)N)C(=O)N1CCC[C@H]1C(=O)N[C@H](C)C(N)=O [Example 37a, NAc-D2Nal^1 -D4ClPhe^2 -D3Pal^3 -Ser^4 -NMeTyr^5 -DLys(N-epsilon-Azagly-2-Furoyl)^6 -Leu^7 -Arg^8 -Pro^9 -DAla^10 NH2] (Ac-[d2Nal][dPhe(4-Cl)][d3Pal]S[NMeY][dK]([azaGly-2Furoyl])LRP[dA]-NH2)",0.0166 nM
8,"CC(=O)N[C@H](Cc1ccc2ccccc2c1)C(=O)N[C@H](Cc1ccc(Cl)cc1)C(=O)N[C@H](Cc1cccnc1)C(=O)N[C@@H](CO)C(=O)N(C)[C@@H](Cc1ccc(O)cc1)C(=O)N[C@H](CCCCNC(=O)NNC(=O)c1cccnc1)C(=O)N[C@@H](CC(C)C)C(=O)N[C@@H](CCCNC(=N)N)C(=O)N1CCC[C@H]1C(=O)N[C@H](C)C(N)=O [Example 37b, NAc-D2Nal^1 -D4ClPhe^2 -D3Pal^3 -Ser^4 -NMeTyr^5 -DLys(N-epsilon-Azagly-Nicotinyl)^6 -Leu^7 -Arg^8 -Pro^9 -DAla^10 NH2] (Ac-[d2Nal][dPhe(4-Cl)][d3Pal]S[NMeY][dK]([azaGly-Nicotinoyl])LRP[dA]-NH2)",0.00562 nM
9,"CC(=O)N[C@H](Cc1ccc2ccccc2c1)C(=O)N[C@H](Cc1ccc(Cl)cc1)C(=O)N[C@H](Cc1cccnc1)C(=O)N[C@@H](CO)C(=O)N(C)[C@@H](Cc1ccc(O)cc1)C(=O)N[C@H](CCCCNC(=O)[C@@H](C)NC(=O)C1=C[C@@H](O)[C@@H](O)[C@H](O)C1)C(=O)N[C@@H](CC(C)C)C(=O)N[C@@H](CCCNC(=N)N)C(=O)N1CCC[C@H]1C(=O)N[C@H](C)C(N)=O [Example 38a, NAc-D2Nal^1 -D4ClPhe^2 -D3Pal^3 -Ser^4 -NMeTyr^5 -DLys(N-epsilon-DAla-Shikimyl)^6 -Leu^7 -Arg^8 -Pro^9 -DAla^10 NH2] (Ac-[d2Nal][dPhe(4-Cl)][d3Pal]S[NMeY][dK]([dA-Shikimoyl])LRP[dA]-NH2)",0.0282 nM
